Read-outs that look alike come from different tables or passages of the source.
Key:
[1] = test system: wild-type mouse bone marrow; test: Hematopoietic colonies from bone marrow treated ex vivo; format: cell-based; conditions: 1 uM, ex vivo on ice 2 hours
Excerpt: Treated marrow is again then plated into methylcellulose for counting of hematopoietic colonies.

15-PGDH mRNA = 15-PGDH mRNA levels by real-time PCR; format: cell-based; conditions: treated colon cancer cell lines
[2] = test system: 15-PGDH luciferase fusion construct in LS174T reporter cell line; test: 15-PGDH-luciferase fusion gene reporter induction, LS174T cells; format: cell-based; conditions: Homo sapiens
15-PGDH protein [3] = molecular target: T1, 15-PGDH protein (Homo sapiens (Human), UniProt P15428); test: Shift of melting temperature of recombinant 15-PGDH (SYPRO Orange); format: binding; conditions: FIG. 14
T1 sequence (P15428 whole entry, the tested form may be a part): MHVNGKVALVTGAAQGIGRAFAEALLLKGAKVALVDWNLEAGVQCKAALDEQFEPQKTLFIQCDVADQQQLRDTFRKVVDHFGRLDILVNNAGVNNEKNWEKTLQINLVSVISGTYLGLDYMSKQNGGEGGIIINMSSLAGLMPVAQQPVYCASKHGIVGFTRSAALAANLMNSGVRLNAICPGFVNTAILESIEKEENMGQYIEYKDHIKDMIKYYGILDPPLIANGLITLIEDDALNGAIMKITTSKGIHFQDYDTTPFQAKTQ

[4] = test system: 15-PGDH luciferase fusion construct in V9m reporter cell line; test: 15-PGDH-luciferase fusion gene reporter induction, V9m cells; format: cell-based; conditions: % induction of luciferase activity over basal level
15-PGDH protein [5] = molecular target: T1, 15-PGDH protein; test: 15-PGDH protein levels in treated cells (western blot, immuno-fluorescence); format: cell-based; conditions: […] compound for 48 hours; colon cell lines
A549 cells [6] = test: PGE2 levels in the medium of IL1-beta stimulated A549 cells; format: cell-based; conditions: for Decrease PGE-2 (IL-1beta-A549, %): media of IL-1beta stimulated A549 cells;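 on all read-outs here: PGE2 in the collected culture medium quantified by enzyme immunoassay (ELISA), with data drawn from three independent experiments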
[7] = test system: 15-PGDH-luciferase fusion reporter in V9m, LS174T and V503 cells; test: 15-PGDH-luciferase fusion gene reporter induction, stated for the three cell line backgrounds together; format: cell-based; conditions: for luciferase activity of cells expressing 15-PGDH luciferase fusion construct: V9m, LS174T, V503; for induction of 15-PGDH-luciferase reporter in cell lines (SW054384 analogues): […] and […]
[8] = Metabolic stability with murine liver S9; format: in vitro ADME; conditions: for half-life: mouse, liver S9 fraction, Murine S9 fraction, Phase I cofactors, 0-240 minutes
Experimental: SW054384 (2 mM in DMSO) was incubated with Murine S9 (Lot KWB) fraction and Phase I (NADPH Regenerating System) cofactors for 0-240 minutes. Reactions were quenched with a 1 mL (1:1) of MeOH/(+)IS/0.2% Formic Acid, vortexed for 15 seconds, incubated at RT for 10 minutes and spun for 5 minutes at 2400 rpms. […] Supernatant (800 μL) was transferred to an HPLC vial (w/out insert) and analyzed by HPLC/MS. A: dH2O+0.1% FA B: MeOH+0.1% FA
SW125991 (2 mM in DMSO) was incubated with Murine S9 (Lot KWB) fraction and Phase I (NADPH Regenerating System) cofactors for 0-240 minutes. Reactions were quenched with 1 mL (1:1) of methanol containing 0.2% formic acid and 100 ng/ml IS (IS final conc.=50 ng/ml). Samples were vortexed for 15 seconds, incubated at RT for 10 minutes and spun for 5 minutes at 2400 rpm. […] Supernatant (800 μL) was transferred to an HPLC vial (w/out insert). Analyzed by Qtrap 3200 mass spectrometer.

15-PGDH protein [9] = molecular target: T1, 15-PGDH protein; test: Inhibition of enzymatic activity of recombinant 15-PGDH in vitro (tritium transfer from PGE2 or NADH fluorescence); format: biochemical
[10] = test system: 15-PGDH luciferase fusion construct in Vaco503 reporter cell line; test: 15-PGDH-luciferase fusion gene reporter induction, V503 cells; format: cell-based; conditions: read-out: V503-3H9-7 reporter activity, % ([…]), V503 reporter cells, […] compound, % induction of luciferase activity over basal level
A549 cells [11] = test: Cellular toxicity on A549 cells (CellTiter-Glo); format: cell-based; design: Decrease Cell viability in A549 cell (%): concentration or dose not given beside the values; conditions: for Decrease Cell viability in A549 cell (%): A549 cells
[12] = read-out: Ls174T-SC1 reporter activity, % ([…]), LS174T reporter cells, […] compound, % induction of luciferase activity over basal level, read-out: Ls174T-SC1 reporter activity, % (2.5 μM)
[13] = read-out: Ls174T-SC1 reporter activity, % ([…]), LS174T reporter cells, […] compound, % induction of luciferase activity over basal level, read-out: Ls174T-SC1 reporter activity, % (7.5 μM)
[14] = read-out: V9M-SC3 Reporter activity ([…]) (%), V9m reporter cells, […] compound, read-out: V9M-SC3 Reporter activity (2.5 μM) (%)
[15] = read-out: V9M-SC3 Reporter activity ([…]), %, V9m reporter cells, […] compound, read-out: V9M-SC3 Reporter activity (7.5 μM), %
[16] = read-out: V503-3H9-7 reporter activity, % (2.5 μM)
[17] = read-out: V503-3H9-7 reporter activity, % (7.5 μM)

| SMILES | activation at […] [2, 12] | activation at […] [2, 13] | activation at […] [4, 14] | activation at […] [4, 15] | lowering of PGE2 levels in media (A549 cells [6]) | Decrease PGE-2 (IL-1beta-A549, %) (A549 cells [6]) | activation at […] [10, 16] | activation at […] [10, 17] | Decrease Cell viability in A549 cell (%) (A549 cells [11]) | induction of 15-PGDH-luciferase reporter in cell lines (SW054384 analogues) [7] | also measured |
| --- | --- | --- | --- | --- | --- | --- | --- | --- | --- | --- | --- |
| CCCCC[C@H](O)/C=C/[C@H]1[C@H](O)CC(=O)[C@@H]1C/C=C\CCCC(=O)O [PGE2, prostaglandin E2] |  |  |  |  |  |  |  |  |  |  | increase in bone marrow derived colonies relative to SW033291 [1]: lesser increase |
| COc1ccc(OC)c(N(CC(=O)Nc2cccnc2)S(=O)(=O)c2ccccc2)c1 [SW054384] | 130% | 156% | 116% | 148% | show activity in lowering PGE2 | 41.96% | 149% | 157% |  |  | 15-PGDH mRNA levels (real-time PCR) (15-PGDH mRNA): do not in general alter 15-PGDH mRNA levels; direct binding to recombinant 15-PGDH (melting temperature shift) (15-PGDH protein [3]): cannot be demonstrated to bind 15-PGDH; levels of 15-PGDH protein (western blot) (15-PGDH protein [5]): increase levels of 15-PGDH protein; PGE2 levels in medium (A549 cells [6]; compound added 24 hours before IL1-beta, maintained 26 hours with IL1-beta): lower level of PGE2 produced; concentration of maximum reporter activity ([7]; FIG. 1): 6.25 µM; luciferase activity of cells expressing 15-PGDH luciferase fusion construct ([7]; FIG. 1): increase luciferase activity; half-life [8]: 0.362 h; IC50 higher than that of SW033291 (15-PGDH protein [9]): 10,000 fold; IC50 (15-PGDH protein [9]; 15-PGDH-GST fusion protein, FIG. 11, read-out: IC50): 5 to 50 µM; IC50 (15-PGDH protein [9]; fluorescent based assay, FIG. 12, read-out: IC50): 11 µM; IC50 (15-PGDH protein [9]; tritium assay, FIG. 12, read-out: IC50): 8.4 µM |
| COc1ccc(OC)c(N(CC(=O)N2CCOCC2)S(=O)(=O)c2ccccc2)c1 [SW125991] | 67.3% | 83.3% | 77.4% | 74.6% | show activity in lowering PGE2 | 31.33% | 161% | 149% | −2.13% |  | toxicity by CellTiter-Glo (A549 cells [11]; 24 hours): no toxicity; metabolic stability [8]: marked improvement in metabolic stability; half-life [8]: 3.4 h |
| O=C(c1ccc2nc(-c3ccccc3)c(-c3ccccc3)nc2c1)N1CCCCC1 [SW145753] |  |  |  |  |  |  |  |  |  |  | 15-PGDH mRNA levels (real-time PCR) (15-PGDH mRNA): do not in general alter 15-PGDH mRNA levels; PGE2 levels in medium (A549 cells [6]; IL1-beta 23 hours, compound added for the last 5 hours): clear inhibition of 15-PGDH activity; luciferase activity of cells expressing 15-PGDH luciferase fusion construct ([7]; FIG. 1): increase luciferase activity |
| COc1ccc(S(=O)(=O)N(CC(=O)Nc2cccnc2)c2cc(OC)ccc2OC)cc1 [SW202940] | 148% | 211% | 147% | 181% |  | 80.46% | 181% | 183% | 45.18% | active in inducing 15-PGDH-luciferase reporter activity | IC50 (15-PGDH protein [9]; recombinant 15-PGDH in vitro, read-out: Enzyme inhibition (IC50)): ~5 µM |
| COc1ccc(OC)c(N(CC(=O)Nc2csnc2C)S(=O)(=O)c2ccccc2)c1 [SW203703] | 85.8% | 80.2% | 108% | 106% | show activity in lowering PGE2 | 31.90% | 143% | 78% | −1.97% | active in inducing the 15-PGDH-luciferase reporter |  |
| COc1ccc(OC)c(N(CC(=O)Nc2cc(C)no2)S(=O)(=O)c2ccccc2)c1 [SW203704] | 8.64% | 12.5% | 8.71% | 8.04% |  | 22.33% | 52.8% | 37.8% | −2.70% | active in inducing the 15-PGDH-luciferase reporter |  |
| CCCCC(C)(C)[C@H](O)/C=C/[C@H]1[C@H](O)CC(=O)[C@@H]1C/C=C\CCCC(=O)O [dmPGE2, 16,16-dimethyl PGE2] |  |  |  |  |  |  |  |  |  |  | increase in bone marrow derived colonies relative to SW033291 [1]: slightly greater increase |
